Laboratory results as given in patent US8461077B2 (priority 2007, dated 2013).
Where two headings read alike, the source gives them in different places.

How the values were obtained:
[1] = tested on: Plasmopara viticola; test: Greenhouse: activity against downy mildew of grapevine; format: in vivo; settings: single active substance, grapevine leaves sprayed 1 day before inoculation
Procedure: (§1) The active substances, separately or individually, were prepared as a stock solution, using 25 mg of active substance, which was made up to 10 ml with a mixture of acetone and/or DMSO and the emulsifier Uniperol® EL (wetter based on ethoxylated alkylphenols, with emulsifying and disputing activity) in the volumetric solvent/emulsifier ratio of 99 to 1. Then, the mixtures were made up to 100 ml with water. This stock solution was diluted with the above-described solvent/emulsifier/water mixture to give the active substance concentration stated below. As an alternative, the active substances were used as a commercially available ready mix and made up to the active substance concentration stated with water.
(§2) The visually determined values for the percentage of affected leaf area were converted into efficacies as % of the untreated control:
(§3) The efficacy (E) is calculated as follows, using Abbot's formula: E=(1−α/β)·100 • α corresponds to the fungal disease level of the treated plants in % and • β corresponds to the fungal disease level of the untreated (control) plants in %
(§4) At an efficacy of 0 the disease level of the treated plants corresponds to that of the untreated control plants; at an efficacy of 100, the treated plants are not diseased.
(§5) The expected efficacies for active substance combinations were determined using the Colby formula (Colby, S. R. (Calculating synergistic and antagonistic responses of herbicide Combinations”, Weeds, 15, p. 20-22, 1967) and compared with the observed efficacies.
(§6) Colby Formula: E=x+y−x·y/100 • E expected efficacy, expressed in % of the untreated control, when employing the mixture of the active substances A and B at the concentrations a and b • x efficacy, expressed in % of the untreated control, when employing active substance A at concentration a • y efficacy, expressed in % of the untreated control, when employing active substance B at concentration b
Leaves of pot-grown grapevines were sprayed to runoff point with aqueous suspension at the active substance concentration stated below. On the next day, the abaxial sides of the leaves were inoculated with an aqueous sporangia suspension of Plasmopara viticola. Then, the grapevines were placed first for 24 hours into a water-vapor-saturated chamber at 24° C. and then for 5 days in the greenhouse at temperatures of between 20 and 30° C. After this time, the plants were returned into a humid chamber for 16 hours in order to accelerate the eruption of the sporangiophores. Then, the extent of the disease development on the abaxial sides of the leaves was determined visually.

[2] = tested on: Phytophthora infestans; format: cell-based; settings: single active substance, microtiter plate, day 7, 405 nm
[3] = tested on: Septoria tritici; test: Microtiter test against the Septoria leaf spot pathogen (Septtr); format: cell-based; settings: single active substance, microtiter plate, day 7, 405 nm
[4] = tested on: Phytophthora infestans; format: in vivo; settings: single active substance, tomato, protective spray, rated after 6 days
[5] = tested on: Botrytis cinerea; test: Greenhouse: 1-day protective activity against gray mold on capsicum leaves; format: in vivo; settings: single active substance, protective 1 day, rated after 5 days
Procedure: as §1, §2, §3, §4, §5, §6
Capsicum seedlings were allowed to develop 2-3 leaves properly and were then sprayed to runoff point with an aqueous suspension of the active substance concentration stated below. On the next day, the treated plants were inoculated with a spore suspension of Botrytis cinerea in a 2% strength Biomalz solution. Thereafter, the test plants were placed into a controlled-environment cabinet at 22 to 24° C. in the dark and with high atmospheric humidity. After 5 days, it was possible to visually determine the extent of the fungal disease level on the leaves in %.

[6] = tested on: Puccinia recondita; test: Greenhouse: protective activity against leaf rust of wheat; format: in vivo; settings: single active substance
Procedure: as §1, §2
(§7) The efficacy (E) is calculated as follows, using Abbot's formula: E=(1−α/β)·100 • α corresponds to the fungal disease level of the treated plants in % and • β corresponds to the fungal disease level of the untreated (control) plants in % […]
(§8) The expected efficacies for active substance combinations were determined using the Colby formula (Colby, S. R. (Calculating synergistic and antagonistic responses of herbicide Combinations”, Weeds, 15, p. 20-22, 1967) and compared with the observed efficacies. […]

[7] = tested on: Puccinia recondita; test: Greenhouse: curative activity against leaf rust of wheat; format: in vivo; settings: single active substance
Procedure: as §1, §2, §7, §8

[8] = tested on: Pyrenophora teres; test: Greenhouse: 1-day protective activity against barley net blotch disease; format: in vivo, Pyrenophora [syn. Drechslera] teres; settings: single active substance, protective 1 day, rated after 6 days
Procedure: as §1, §2, §7, §8

[9] = tested on: Phakopsora pachyrhizi; test: Greenhouse: curative activity against soybean rust; format: in vivo; settings: single active substance
Procedure: as §1, §2, §7, §8

[10] = 0.063 ppm, efficacy as % of untreated control (Abbot)

SMILES | Observed effect (%) ([2]; 1 ppm) | Observed effect (%) ([2]; 4 ppm) | Observed effect (%) ([2]; 16 ppm) | Observed effect (%) ([1]; 0.25 ppm) | other results
CCC/C(=N\OCC)C1=C(O)CC(C2CCCSC2)CC1=O (stereo not drawn) [Cycloxydim (I.Ba), cycloxydim, reference compound] | 9 | 5 | 13 | – | Observed effect (%) ([1]; 0.063 ppm): 0%; Observed effect (%) ([3]; 63 ppm): 39%
COC[C@H](C)N(C(=O)CCl)c1c(C)csc1C [Dimethenamid-P (I.Ea)] | – | – | – | – | Observed effect (%) ([1]; 0.016 ppm): 0%
COCC(C)N(C(=O)CCl)c1c(C)csc1C (stereo not drawn) [Dimetheneamid-P (I.Ea), dimethenamid-P, reference compound] | – | – | – | – | Observed effect (%) [4, 10]: 22%; Observed effect (%) ([5]; 0.25 ppm): 0%
CP(=O)(O)CCC(N)C(=O)O (stereo not drawn) [Glufosinate (I.Ab)] | 3 | 12 | 20 | 0 | Observed effect (%) ([1]; 0.063 ppm): 0%
O=C(O)CNCP(=O)(O)O [Glyphosate (I.Aa), glyphosate, reference compound] | 4 | 1 | 13 | – | Observed effect (%) ([6]; 0.063 ppm): 0%; Observed effect (%) ([7]; 0.063 ppm, curative (sprayed 1 day after inoculation)): 0%; Observed effect (%) ([1]; 0.016 ppm): 0%
Cc1nc2ncnn2c(N)c1-c1ccc(Cl)c(Cl)c1 [II-1, 6-(3,4-dichlorophenyl)-5-methyl-[1,2,4]triazolo[1,5-a]pyrimidin-7-ylamine] | – | – | – | – | Observed effect (%) ([3]; 16 ppm): 12%
CCCCCCCCc1nc2ncnn2c(N)c1CC [II-6, 6-ethyl-5-octyl-[1,2,4]triazolo[1,5-a]pyrimidin-7-ylamine] | – | – | 25 | – | Observed effect (%) ([5]; 16 ppm): 0%; Observed effect (%) ([6]; 4 ppm): 0%; Observed effect (%) ([7]; 4 ppm, curative): 0%; Observed effect (%) ([1]; 16 ppm): 44%
CCCCCCCCc1c(CC)nc2ncnn2c1N [II-7, 5-ethyl-6-octyl-[1,2,4]triazolo[1,5-a]pyrimidin-7-ylamine] | 7 | – | – | – | Observed effect (%) ([1]; 1 ppm): 0%; Observed effect (%) ([1]; 4 ppm): 22%
CCc1nc2ncnn2c(N)c1CCC(C)CC(C)(C)C (stereo not drawn) [II-8, 5-ethyl-6-(3,5,5-trimethylhexyl)-[1,2,4]triazolo[1,5-a]pyrimidin-7-ylamine] | – | 1 | – | – | Observed effect (%) ([4]; 4 ppm): 22%; Observed effect (%) ([1]; 1 ppm): 33%
CCCCCCCCc1c(COC)nc2ncnn2c1N [II-10, 5-methoxymethyl-6-octyl-[1,2,4]triazolo[1,5-a]pyrimidin-7-ylamine] | – | – | – | – | Observed effect (%) ([4]; 16 ppm): 0%; Observed effect (%) ([5]; 16 ppm): 0%; Observed effect (%) ([8]; 16 ppm): 0%; Observed effect (%) ([9]; 16 ppm, curative): 0%; Observed effect (%) ([1]; 4 ppm): 0%; Observed effect (%) ([1]; 16 ppm): 44%; Observed effect (%) ([2]; 0.25 ppm): 10%
Cc1cnc(C2=NC(=O)C(C)(C(C)C)N2)c(C(=O)O)c1 (stereo not drawn) [Imazapic (I.Cd)] | 4 | 4 | 12 | 0 | Observed effect (%) ([1]; 0.063 ppm): 0%
CC(C)C1(C)N=C(c2ncccc2C(=O)O)NC1=O (stereo not drawn) [Imazapyr (I.Ca)] | 1 | 9 | 8 | – | Observed effect (%) ([1]; 0.063 ppm): 0%
CC(C)C1(C)N=C(c2nc3ccccc3cc2C(=O)O)NC1=O (stereo not drawn) [Imazaquin (I.Cc)] | 8 | 11 | 23 | 0 | –
CCc1cnc(C2=NC(C)(C(C)C)C(=O)N2)c(C(=O)O)c1 (stereo not drawn) [Imazethapyr (I.Cb)] | 3 | 8 | 9 | 0 | –
C[n+]1ccc(-c2cc[n+](C)cc2)cc1 [Paraquat (I.Fa), paraquat, reference compound] | 4 | 5 | 7 | – | Observed effect (%) [4, 10]: 0%; Observed effect (%) ([4]; 0.25 ppm): 0%; Observed effect (%) ([5]; 0.25 ppm): 0%; Observed effect (%) ([9]; 0.25 ppm, curative (sprayed 1 day after inoculation)): 0%
CCC(CC)Nc1c([N+](=O)[O-])cc(C)c(C)c1[N+](=O)[O-] [Pendimethalin (I.Da)] | 7 | 16 | 29 | 0 | Observed effect (%) ([2]; 63 ppm): 38%
CCC/C(=N\OCC)C1=C(O)CC(CC(C)SCC)CC1=O (stereo not drawn) [Sethoxydim (I.Bc), sethoxydim, reference compound] | 2 | 5 | 14 | 0 | Observed effect (%) ([8]; 0.25 ppm): 0%
